Non-standard residues stand in square brackets, D forms with d. Residues, ends and D or L forms follow the SMILES beside them. ξ: configuration not given here. *: point of attachment. Succinyl(20-O-(20S)-CPT) = CC[C@@]1(OC(=O)CCC(=O)*)C(=O)OCc2c1cc1n(c2=O)Cc2cc3ccccc3nc2-1; Fmoc = O=C(OCC1c2ccccc2-c2ccccc21)*; ξK = NCCCCC(N)C(=O)O; Bz = O=C(c1ccccc1)*; ξC = NC(CS)C(=O)O
Tests used:
3T3-L1 cells = experiment: LDH release cytotoxicity (CytoTox 96) in 3T3-L1 cells; format: cell-based, mouse; details: different concentrations, 6 hours
Experimental: Non-differentiated, 90% confluent 3T3-L1 cells were incubated with different concentrations of nanoscaffolds #1, #2, or #3 for 6 hours. Cytotoxicity was measured the lactate dehydrogenase (LDH), released upon cell lysis using The CytoTox 96 assay (Promega, Cat #G1780).

NCI-H23 = experiment: MTT cytotoxicity on NCI-H23; format: cell-based, human
Experimental: (§1) The non-oxidized CPT-CCKK nanotube was assessed for cytotoxic efficacy against human non-small cell lung cancer (NSCLC) cell lines A549, NCI-460, and NCI-H23, which were selected according to the indications of approved CPT derivative Topotecan. […] The explanation for the cytotoxicity results could be that CPT-CCKK release active CPT in a time-dependent manner, and the entire true concentration for CPT in the cell medium is less than that of free CPT. […] It has been reported before that the GSH level in H460 was almost twice higher than that in A549. Therefore, higher concentration of GSH in H460 accelerated the breakage of the disulfide bonds within the crosslinked CPT-CCKK nanotubes, leading to faster release of active CPT and higher in vitro cytoxicity.

[1] = test system: HT-29 colorectal cancer cells; experiment: Viability / cytotoxicity assay on HT-29 colorectal cancer cells; format: cell-based, human; details: in vitro
A549 = experiment: MTT cytotoxicity on A549; format: cell-based; details: Homo sapiens
Experimental: as §1

NCI-460 = experiment: MTT cytotoxicity on NCI-460 (H460); format: cell-based; details: Homo sapiens
Experimental: as §1

[2] = test system: Brainbow (BB) mice fed a high-fat (HF) diet; experiment: Study 5: recombinant EFNA5 injected into iAb fat of Brainbow mice fed a HF diet; format: in vivo, mouse
Experimental: Brainbow (BB) B6.Cg-Tg(Thy1-Brainbow1.0)HLich/J mice were purchased from The Jackson Laboratory (n=7, females). 5-week old BB mice were fed a HF for 140 days. Then mice were randomly assigned into groups injected with PBS (n=3) and recombinant EFNA5 (n=4). Mice were individually housed for all treatment periods. Mice were injected into both iAb fat depots with 100 μL PBS/iAb depot or with PBS containing recombinant EFNA5 (Life Technologies, 45 ng/mL) every other day for 1 month. Metabolic measurements were performed. WAT were collected for protein, mRNA, and histology.
Metabolic parameters were measured by indirect calorimetry (CLAMS, Columbus Instruments, Columbus, OH) at ambient temperature (22° C.) with 12 h light/dark cycles. Animals were fed the same HF diet and water was provided ad libitum. Mice were placed individually and allowed to acclimatize in the chambers for 12 h. Oxygen consumption, CO2 production, energy expenditure, and locomotor activity were measured for at least 24 h. […] For cold exposure the temperature was changed to 4° C. for 6 h.
Cell/tissue protein lysates normalized by protein content (BCA, ThermoFisher). Medium was collected from cells plated at similar numbers. Protein lysate or medium were separated on 10% acrylamide gel under reducing conditions. After transfer to a polyvinylidene fluoride membrane (Immobilon-P; Millipore), proteins were analyzed using an Odyssey Infrared Imaging System (LI-COR Biosciences). Peripherin and tyrosine hydroxylase polyclonal rabbit antibodies (Abcam, Cambridge, MA) were used at 1:1000 dilution.

DRG neurons = experiment: Neurite outgrowth of DRG neurons (ArrayScan XTI, Neuronal Profiling algorithm); format: cell-based, mouse; details: recombinant EFNA5 30 ng/mL, 24 hours
Experimental: Single cell suspensions from cervical, thoracic, and lumbar DRG neurons were isolated from terminally anesthetized C57BL/6 adult female mice (12-16 weeks old, The Jackson Laboratory). Dissected DRGs were enzymatically digested in a solution of collagenase type 2 (200 U/mL; Sigma, St. Louis, MO) and dispase I (5 U/mL; Sigma) on a shaker for 45 min at 37° C. (Davies et al., 1999). Enzyme solution was aspirated and cells were washed twice in Hank's Balanced Salt Solution 1× (HBSS; Mediatech Inc., Manassas, VA) before incubating in DNase I type II (5 mg/mL; Worthington Biochemical, Lakewood, NJ) for 5 min at room temperature. […] The neuron-enriched pellet was resuspended in DRG culture medium (DMEM/F12, 1% N2 supplement, and 0.05% Gentamicin) and live cells were counted on a hemocytometer using trypan blue exclusion. […] Cells were automatically imaged using a Thermo Scientific™ ArrayScan™ XTI Live High Content microscope and analyzed with the Neuronal Profiling algorithm (ThermoFisher) (Lerch et al., 2014). Total neurite length, average neurite length, number of branch points, critical value, dendrite maximum, and ramification index were averaged across all neurons detected per well, with 3 wells included per treatment. […] Dendrite maximum and critical value are parameters determined based on Scholl analysis, and are automatically generated by the software. […]

3T3-L1 adipocytes = experiment: Thermogenic gene expression in 3T3-L1 adipocytes (TaqMan / RT-PCR); format: cell-based, mouse; details: recombinant EFNA5 10 ng/mL, 4 days
Experimental: FIGS. 9A to 9D show DRG neurons (500 neurons per well) cultured in DRG culture medium only, or DRG culture medium with NT-3 (1 ng/mL), with NGF (10 ng/mL), with WT secretome (1/1, v/v), or with Aldh1a1^−/− secretome (1/1, v/v) for 24 hours. WT and Aldh1a1^−/− adipocytes differentiated for 5 days. Secretome is the media collected from these cells for 24 h. Neurite outgrowth parameters were assayed using the Thermo Scientific™ ArrayScan™ XTI Live High Content microscope and analyzed with the Neuronal Profiling Algorithm (ThermoFisher). Nine independent experiments were performed using DRG from three mice. Each DRG batch was analyzed in triplicate. Data are shown as mean±SD obtained with one DRG batch. Asterisks indicate P<0.05 between different groups; Mann-Whitney U test. FIG. 9A: Representative images show ~25% of area used for the automatic quantification of neuronal parameters in FIG. 3 per one condition. […] FIG. 9B: Secreted EFNA5 levels in the medium from 3T3-L1 preadipocytes and adipocytes differentiated for 4d were analyzed by ELISA. FIG. 9C: Basal metabolic rate (heat) was measured in PBS- and EFNA5-injected mice from Table 1, Study 4 by an open circuit indirect calorimetry treadmill. […] Expression was measured by RT-PCR and normalized by 18S.
FIGS. 11A to 11I show adipokine Ereg is bilaterally associated with obesity and thermogenesis and activates PPARα. […] FIG. 11B: Ereg expression was measured in non-differentiated and differentiated (day 5) 3T3-L1 adipocytes (Mann-Whitney test) using a customized NanoString mouse panel. FIG. 11C: Ereg expression was measured in differentiated (day 5) 3T3-L1 and Aldh1a1^−/− adipocytes by Taqman and normalized to TATA box protein (TBP). FIG. 11D: Plasma EREG concentrations were measured in mice from Study 1 by western blot. […] FIG. 11E: Plasma EREG concentrations were measured and quantified in iAb of WT and ob/ob mice from Study 2 by western blot (n=5 per each group). […] FIG. 11F: EREG was measured in iAb, subcutaneous and brown fat by western blot. […] Expression level were measured by Taqman and normalized by TBP. […]

[3] = Study 5, BB mice, HF diet, EA5 vs PBS

Molecule: CCN(CC)c1ccc2cc(C(=O)NCCCC[C@H](NC(=O)[C@H](CCCCN)NC(=O)OCC3c4ccccc4-c4ccccc43)C(N)=O)c(=O)oc2c1 [nanoscaffold #2, Fmoc-KK(DAC)]
- cytotoxicity (LDH release) (3T3-L1 cells): not toxic

Molecule: CC[C@@]1(OC(=O)CCC(=O)NC(CS)C(=O)NC(CS)C(=O)NC(CCCCN)C(=O)NC(CCCCN)C(N)=O)C(=O)OCc2c1cc1n(c2=O)Cc2cc3ccccc3nc2-1 (stereo partly drawn) [CPT-CCKK] ({Succinyl(20-O-(20S)-CPT)}-[ξC][ξC][ξK][ξK]-NH2)
- less cytotoxic than parental drug CPT (NCI-H23; H23 cell lines): roughly 3 folds

Molecule: NCCCC[C@H](NC(=O)OCC1c2ccccc2-c2ccccc21)C(=O)N[C@@H](Cc1ccccc1)C(=O)N[C@@H](CCCCN)C(=O)N[C@@H](CCCCNC(=O)c1ccccc1)C(N)=O [Fmoc-KFKK(Bz)-NH2] (Fmoc-KFKK(Bz)-NH2)
- cytotoxic efficacy against human colorectal cell line [1]: no efficacy

Molecule: Fmoc-KK(SucBz) [nanoscaffold #1]
- cytotoxicity (LDH release) (3T3-L1 cells): not toxic

Molecule: CC[C@@]1(O)C(=O)OCc2c1cc1n(c2=O)Cc2cc3ccccc3nc2-1 [CPT, Camptothecin]
- IC50 (A549; 96 h MTT, experiment with non-oxidized nanotube (FIG. 36A)): 200 nM
- IC50 (A549; experiment with crosslinked nanotubes (FIG. 36B)): ~830 nM
- IC50 (NCI-460; NCI-460, 96 h MTT, experiment with non-oxidized nanotube (FIG. 36A)): 270 nM
- IC50 (NCI-460; H460, experiment with crosslinked nanotubes (FIG. 36B)): 350 nM
- IC50 (NCI-H23; Homo sapiens, NCI-H23, 96 h MTT, experiment with non-oxidized nanotube (FIG. 36A)): 190 nM

B1: EFNA5: recombinant ephrin-A5 ligand protein (protein)
chain: QDPGSKVVADRYAVYWNSSNPRFQRGDYHIDVCINDYLDVFCPHYEDSVPEDKTERYVLYMVNFDGYSACDHTSKGFKRWECNRPHSPNGPLKFSEKFQLFTPFSLGFEFRPGREYFYISSAIPDNGRRSCLKLKVFVRPTNSCMKTIGVHDRVFDVNDKVENSLEPADDTVHESAEPSRGEN
- metabolic rate on cold exposure ([2]; EFNA5- vs. PBS-injected mice, 4° C.): increased
- tyrosine hydroxylase protein levels in WAT ([2]; EFNA5 vs. PBS, after 2 weeks of treatment, Western blot): increased
- Body Wt. [2, 3]: 28.7 ± 3.2 g
- Brown Fat [2, 3]: 0.1 ± 0.03 g
- Sub Fat [2, 3]: 1.0 ± 0.4 g
- iAb Fat [2, 3]: 1.2 ± 0.5 g
- dendritic maximum and critical value in neurons (DRG neurons): increased
- regulation of expression of thermogenic genes (Ucp1) (3T3-L1 adipocytes): no direct effect
